Values of other authors as cited in patent US8415299B2, “Methods for improved avian performance” (priority 2004, dated 2013).

Experiments:
laying hens = conditions: cited from earlier work
[1] = tested on: T4 and rT3 deiodination systems; conditions: rat liver homogenates; cited from earlier work

Structure (SMILES): C[C@]12C[C@H](O)[C@H]3[C@@H](CCC4=CC(=O)CC[C@@]43C)[C@@H]1CC[C@@H]2C(=O)CO [corticosterone]
- Laying hens with cessation of egg production (laying hens; 20 to 40 mg/kg diet (Wolford et al. 1983)): 98%

Structure (SMILES): I [iodide]
- Effect on egg production (laying hens; 5,000 mg/kg diet): cessation of egg production

Structure (SMILES): CCNC(=O)[C@@H]1CCCN1C(=O)[C@H](CCCNC(=N)N)NC(=O)[C@H](CC(C)C)NC(=O)[C@@H](CC(C)C)NC(=O)[C@H](Cc1ccc(O)cc1)NC(=O)[C@H](CO)NC(=O)[C@H](Cc1c[nH]c2ccccc12)NC(=O)[C@H](Cc1c[nH]cn1)NC(=O)[C@@H]1CCC(=O)N1 [leuprolide acetate]
- Body weight (laying hens; single i.m. depot injection releasing 60 mcg/kg body weight per day for 30 days): no body weight loss
- Egg production (laying hens; single i.m. depot injection releasing 60 mcg/kg body weight per day for 30 days, second week (Burke and Attia 1994)): 3.5%

Structure (SMILES): C=C1C[C@H]2[C@@H]3C=C(C)C4=CC(=O)CC[C@]4(C)[C@H]3CC[C@]2(C)[C@@]1(OC(C)=O)C(C)=O [melengestrol acetate]
- Effect on reproductive system (laying hens; 4 or 8 mg per laying hen per day through the feed (Koch et al. 2004)): reversible regression of the reproductive system

Structure (SMILES): [Zn+2] [zinc]
- Inhibition of T4 and rT3 deiodination [1]: potent inhibitor
- Action on progesterone production in F1 granulosa cells of the ovary (laying hens; 2,800 mg/kg diet (Johnson and Brake 1992)): inhibitory action
